{"source": "patent US20210137126A1", "about": "“USE OF PEPTIDES AS IN[…]” (INSTITUT NATIONAL DES SCIENCES APPLIQUEES DE LYON, priority 2018, published 2021)", "test_system": "pea aphid Acyrthosiphon pisum", "assay": "Insecticide test: ingestion of the peptide in artificial medium by pea aphid larvae, mortality monitored over 7 days", "format": "in vivo", "details": "for TL50 (lethal time at which mortality of individuals is 50%): survival analysis, normal logarithmic adjustment", "method": "The experiments were carried out on aphids from the parthenogenetic clone of the pea aphid LL01 which contained only the primary symbiont B. aphidicola. The aphids were bred and kept on feva bean plants (Vicia faba L., Aquadulce variety) under climate-controlled conditions (temperature 21±1° C., relative humidity 70%, photoperiod of 16 h), in order to obtain aphids which reproduced solely by viviparous parthenogenesis. In order to reduce the variability linked to the use of individuals at different stages of development, the aphids were obtained from a synchronized brood. For this, adult aphids that were ready to lay were placed on feva bean plants. […] The manipulation was carried out with a negative control composed solely of artificial medium and a positive control representing one of the concentrations of the range being studied with the aphids. The range being studied comprised different media containing the BCR4 peptide studied at various concentrations which varied from 5 to 80 μM. The experiments were carried out on thirty larvae per condition divided into three distinct groups of ten individuals.\nAll of the data regarding the mortality of the aphids were analyzed statistically by standard survival processing. All of the BCR4 concentrations were analyzed separately in a parametric survival analysis with a normal logarithmic adjustment.\nThe measurement of the insecticidal activity of BCR4 was carried out by incorporating increasing doses of peptides into the nutrient medium for the aphids and monitoring of their mortality was carried out over 7 days."}
{"sequence": "DFDPTEFKGPFPTIEICSKYCAVVCNYTSRPCYCVEAAKERDQWFPYCYD (listed as Acyrthosiphon pisum) [BCR4, Bacteriocyte Cysteine Rich peptide of Acyrthosiphon pisum]", "values": [{"measurement": "TL50 (lethal time at which mortality of individuals is 50%)", "setting": "BCR4 concentration 5 μM in artificial medium", "result": ">20", "unit": "days"}, {"measurement": "TL50 (lethal time at which mortality of individuals is 50%)", "setting": "BCR4 concentration 10 μM in artificial medium", "result": 11.3, "unit": "days"}, {"measurement": "TL50 (lethal time at which mortality of individuals is 50%)", "setting": "BCR4 concentration 20 μM in artificial medium", "result": 3.48, "unit": "days"}, {"measurement": "TL50 (lethal time at which mortality of individuals is 50%)", "setting": "BCR4 concentration 27.5 μM in artificial medium", "result": 3.24, "unit": "days"}, {"measurement": "TL50 (lethal time at which mortality of individuals is 50%)", "setting": "BCR4 concentration 35 μM in artificial medium", "result": 1.94, "unit": "days"}, {"measurement": "TL50 (lethal time at which mortality of individuals is 50%)", "setting": "BCR4 concentration 40 μM in artificial medium", "result": 1.76, "unit": "days"}, {"measurement": "TL50 (lethal time at which mortality of individuals is 50%)", "setting": "BCR4 concentration 80 μM in artificial medium", "result": 1.16, "unit": "days"}, {"measurement": "mortality at onset of the dose-response effect", "setting": "from the first day following ingestion", "result": "high mortality"}, {"measurement": "dose-response over the survival time for the aphids", "setting": "increasing doses 5 to 80 μM, mortality monitored over 7 days", "result": "very significant dose-response"}, {"measurement": "range of activity (insecticidal)", "setting": "pea aphid, peptide in nutrient medium", "result": "5 to 80", "unit": "µM"}]}
